Results from US4791215A, “Derivatives of glutamic acid and aspartic acid” (priority 1984, dated 1988).
“And” between values parts separate entries of the source, which are not always exact repeats. Equal values may be shown once.

Key:
[1] = tested on: CCK-8 induced contraction of guinea pig gall bladder; assay: Anti-CCK-8 activity on gall bladders in situ; type: in vivo; conditions: for percentage inhibition of contracting effect of CCK-8: single experiments; for ED50: Cavia porcellus, iv, CCK-8 10 ng/kg i.v., read-out: ED50 (inhibition of 50% of contracting effect of CCK-8)
Method: In order to confirm the evidence of the studies in vitro several of the more interesting compounds were tested in vivo on guinea pig gall baldders in situ.
The method used is that described by Ljungberg (Svensk. Farm. Tidskr. 68, 351-354, 1964).
Guinea pigs having a weight of about 400 g, anaesthetised with urethane, were used; the substances under examination were administered intraveneously into the jugular vein.
The responses of the gall bladders to the substances under test were detected by means of a force transducer and recorded by means of a microdynamometer. The optimum contracting dose was chosen as 10 ng/kg of CCK-8. The antagonist compounds tested were administered in increasing doses so as to enable the calculation of an ED50 value, that is in the dose (in mg/kg i.v.) capable of inhibiting 50% of the contracting effect of 10 ng/kg i.v. of CCK-8.
The results obtained are given in Table 7 below, which gives the doses used and the effects obtained expressed as a percentage inhibition of the contracting effect of CCK-8 as well as the ED50 found.

[2] = tested on: intestinal transit of carbon; assay: Anti-spastic activity, vegetable carbon intestinal transit test; type: in vivo, mice; conditions: Mus musculus, ip; read-out: antispastic activity ED50 (dose reducing intestinal transit of carbon by 50%)
Excerpt: The anti-spastic activity which the present compounds exert on the entire digestive system is also notable. Measured in mice with the vegetable carbon test (rate of transit through the stomach and the intestine), this activity is illustrated in the following table.
claimed administered intraperitoneally in mice. Values
expressed as the ED 50 in mg/kg, that is the dose which
reduces the intestinal transit of carbon by 50%

[3] = tested on: CCK-8 induced contraction of guinea pig gall bladder; assay: Anti-CCK activity on gall bladder strips in vitro; conditions: for ED50 (concentration antagonising 50% of contracting effect of CCK-8): CCK-8 10 ng/ml
Summary of the method: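 CCK-8 at 10 ng/ml drove isometric contraction of guinea pig gall bladder strips held at 32 °C in oxygenated Krebs (O2/CO2 95:5). Antagonism was measured at graded compound concentrations and reported as ED50, in μg/ml, for 50% inhibition of the contraction.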

[4] = tested on: enkephalinamide (DALA) analgesia; assay: Potentiation of DALA (enkephalinamide) analgesia, i.c.v., Tail Flick Test (Experiment 4); type: in vivo, rats; set-up: scale not given here
Excerpt: Experiment No. 4: Potentiation of the analgesic activities of enkephalins induced by some of the compounds of the invention. […]

[5] = tested on: activity of analgesic drugs; assay: Hot-plate test, potentiation of analgesic drugs (Experiment 2); type: in vivo, rats
Summary of the method: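 Male rats of about 150 g, not fasted, five per group, were placed on a plate held at 55°±1° C. Licking or jumping latency was recorded before and at 10–90 min after dosing, with a 30 s cut-off. A positive response meant at least a doubling of reaction time, reported as positives/treated.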

[6] = tested on: tolerance induced by morphine; assay: Antagonism to development of tolerance to repeated morphine HCl, Tail Flick Test (Experiment 5); conditions: compound 10 mg/kg + morphine 5 mg/kg i.p.
Method: Experiment No. 5: Antagonism of several products of the invention to the development of tolerance induced in rats by the repeated administration of morphine HCl.
Several of the compounds of the invention were examined to determine their possible capacity to antagonise the development of tolerance induced by morphine. Groups of 6 male rats having a weight of about 200-250 grams were used.
At intervals of 24 hours from the first treatment (time 0) each animal (except the control group treated physiologically) received 5 mg/kg of morphine hydrochloride i.p. together with 10 mg/kg i.p. of the compounds indicated (with the exception of the group treated solely with morphine).
The determination of the pain threshold was effected 15', 30', 45' and 60' from the treatment by the Tail Flick Test.

CCCCCN(CCCCC)C(=O)C(CCC(=O)O)NC(=O)c1ccc(Cl)c(Cl)c1 (stereo not drawn) [Compound C-7]
percentage inhibition of contracting effect of CCK-8 ([1]; 0.003 mg/kg i.v.): -10.6%
percentage inhibition of contracting effect of CCK-8 ([1]; 0.03 mg/kg i.v.): -62.1% and -57.0% and -59.2%
block of gall bladder contractions induced by CCK-8 ([1]; 0.1 mg/kg): can block gall bladder contractions induced by CCK-8
ED50 [1]: 0.02 mg/kg
ED50 [2]: 16.8 mg/kg
active concentration relative to that of CCK-8 ([3]; 50% antagonism of CCK-8): about 10 times
ED50 (concentration antagonising 50% of contracting effect of CCK-8) [3]: 0.06 µg/mL

CCCCN(CCCC)C(=O)CCC(NC(=O)c1ccc(Cl)c(Cl)c1)C(=O)O [Compound D-2]
analgesic activity, Tail Flick ([4]; DALA 10 + compound 0.003 μg/kg ICV, 10'): 34.9
analgesic activity, Tail Flick ([4]; DALA 10 + compound 0.003 μg/kg ICV, 20'): 54.0
analgesic activity, Tail Flick ([4]; DALA 10 + compound 0.003 μg/kg ICV, 30'): 45.5
analgesic activity, Tail Flick ([4]; DALA 10 + compound 0.003 μg/kg ICV, 45'): 27.5
analgesic activity, Tail Flick ([4]; DALA 10 + compound 0.003 μg/kg ICV, 60'): 23.5
analgesic activity, Tail Flick ([4]; DALA 10 + compound 0.003 μg/kg ICV, 90'): 14.9
MEAN analgesic activity, Tail Flick ([4]; DALA 10 + compound 0.003 μg/kg ICV): 33.4
analgesic activity, Tail Flick ([4]; DALA 10 + compound 0.01 μg/kg ICV, 10'): 38.2
analgesic activity, Tail Flick ([4]; DALA 10 + compound 0.01 μg/kg ICV, 20'): 53.7
analgesic activity, Tail Flick ([4]; DALA 10 + compound 0.01 μg/kg ICV, 30'): 52.6
analgesic activity, Tail Flick ([4]; DALA 10 + compound 0.01 μg/kg ICV, 45'): 38.5
analgesic activity, Tail Flick ([4]; DALA 10 + compound 0.01 μg/kg ICV, 60'): 33.7
analgesic activity, Tail Flick ([4]; DALA 10 + compound 0.01 μg/kg ICV, 90'): 26.3
MEAN analgesic activity, Tail Flick ([4]; DALA 10 + compound 0.01 μg/kg ICV): 40.5
TOTAL positives ([5]; oxyphenylbutazone 50 + compound 3 mg/kg i.p.): 12 x/30
positive responses over number treated ([5]; oxyphenylbutazone 50 + compound 3 mg/kg i.p., 10'): 2/5
positive responses over number treated ([5]; oxyphenylbutazone 50 + compound 3 mg/kg i.p., 20'): 1/5
positive responses over number treated ([5]; oxyphenylbutazone 50 + compound 3 mg/kg i.p., 30'): 2/5
positive responses over number treated ([5]; oxyphenylbutazone 50 + compound 3 mg/kg i.p., 45'): 3/5
positive responses over number treated ([5]; oxyphenylbutazone 50 + compound 3 mg/kg i.p., 60'): 3/5
positive responses over number treated ([5]; oxyphenylbutazone 50 + compound 3 mg/kg i.p., 90'): 1/5
TOTAL positives ([5]; oxyphenylbutazone 50 + compound 10 mg/kg i.p.): 12 x/30
positive responses over number treated ([5]; oxyphenylbutazone 50 + compound 10 mg/kg i.p., 10'): 1/5
positive responses over number treated ([5]; oxyphenylbutazone 50 + compound 10 mg/kg i.p., 20'): 1/5
positive responses over number treated ([5]; oxyphenylbutazone 50 + compound 10 mg/kg i.p., 30'): 3/5
positive responses over number treated ([5]; oxyphenylbutazone 50 + compound 10 mg/kg i.p., 45'): 3/5
positive responses over number treated ([5]; oxyphenylbutazone 50 + compound 10 mg/kg i.p., 60'): 2/5
positive responses over number treated ([5]; oxyphenylbutazone 50 + compound 10 mg/kg i.p., 90'): 2/5
TOTAL positives ([5]; oxyphenylbutazone 50 + compound 30 mg/kg i.p.): 23 x/30
positive responses over number treated ([5]; oxyphenylbutazone 50 + compound 30 mg/kg i.p., 10'): 3/5
positive responses over number treated ([5]; oxyphenylbutazone 50 + compound 30 mg/kg i.p., 20'): 4/5
positive responses over number treated ([5]; oxyphenylbutazone 50 + compound 30 mg/kg i.p., 30'): 4/5
positive responses over number treated ([5]; oxyphenylbutazone 50 + compound 30 mg/kg i.p., 45'): 4/5
positive responses over number treated ([5]; oxyphenylbutazone 50 + compound 30 mg/kg i.p., 60'): 4/5
positive responses over number treated ([5]; oxyphenylbutazone 50 + compound 30 mg/kg i.p., 90'): 4/5
ED50 [2]: 50.7 mg/kg
ED50 (concentration antagonising 50% of contracting effect of CCK-8) [3]: > 200 µg/mL
percentage variation in latency time (Effect %) ([6]; 24 h): 45.73%
percentage variation in latency time (Effect %) ([6]; 48 h): 59.50%
percentage variation in latency time (Effect %) ([6]; 72 h): 51.52%
percentage variation in latency time (Effect %) ([6]; 96 h): 43.40%
percentage variation in latency time (Effect %) ([6]; 120 h): 37.60%
percentage variation in latency time (Effect %) ([6]; 144 h): 21.43%
percentage variation in latency time (Effect %) ([6]; 168 h): 29.75%
percentage variation in latency time (Effect %) ([6]; time 0): 74.14%

CCCN(CCC)C(=O)C(CCC(=O)O)NC(=O)c1ccc(C(C)C)cc1 (stereo not drawn) [Compound C-36]
percentage inhibition of contracting effect of CCK-8 ([1]; 10 mg/kg i.v.): 64.8% and 71.6% and 63.3% and 78.7%
percentage inhibition of contracting effect of CCK-8 ([1]; 30 mg/kg i.v.): 100%
ED50 [1]: 5.1 mg/kg
TOTAL positives ([5]; ASA 100 + compound 10 mg/kg i.p.): 10 X/30
positive responses over number treated ([5]; ASA 100 + compound 10 mg/kg i.p., 10'): 1/5
positive responses over number treated ([5]; ASA 100 + compound 10 mg/kg i.p., 20'): 2/5
positive responses over number treated ([5]; ASA 100 + compound 10 mg/kg i.p., 30'): 3/5
positive responses over number treated ([5]; ASA 100 + compound 10 mg/kg i.p., 45'): 2/5
positive responses over number treated ([5]; ASA 100 + compound 10 mg/kg i.p., 60'): 1/5
positive responses over number treated ([5]; ASA 100 + compound 10 mg/kg i.p., 90'): 1/5
TOTAL positives ([5]; ASA 100 + compound 30 mg/kg i.p.): 14 X/30
positive responses over number treated ([5]; ASA 100 + compound 30 mg/kg i.p., 10'): 1/5
positive responses over number treated ([5]; ASA 100 + compound 30 mg/kg i.p., 20'): 2/5
positive responses over number treated ([5]; ASA 100 + compound 30 mg/kg i.p., 30'): 2/5
positive responses over number treated ([5]; ASA 100 + compound 30 mg/kg i.p., 45'): 3/5
positive responses over number treated ([5]; ASA 100 + compound 30 mg/kg i.p., 60'): 3/5
positive responses over number treated ([5]; ASA 100 + compound 30 mg/kg i.p., 90'): 3/5
TOTAL positives ([5]; ASA 100 + compound 100 mg/kg i.p.): 20 X/30
positive responses over number treated ([5]; ASA 100 + compound 100 mg/kg i.p., 10'): 3/5
positive responses over number treated ([5]; ASA 100 + compound 100 mg/kg i.p., 20'): 3/5
positive responses over number treated ([5]; ASA 100 + compound 100 mg/kg i.p., 30'): 4/5
positive responses over number treated ([5]; ASA 100 + compound 100 mg/kg i.p., 45'): 4/5
positive responses over number treated ([5]; ASA 100 + compound 100 mg/kg i.p., 60'): 4/5
positive responses over number treated ([5]; ASA 100 + compound 100 mg/kg i.p., 90'): 2/5
TOTAL positives ([5]; methadone 1 + compound 0.3 mg/kg i.p.): 2 X/30
positive responses over number treated ([5]; methadone 1 + compound 0.3 mg/kg i.p., 10'): 2/5
positive responses over number treated ([5]; methadone 1 + compound 0.3 mg/kg i.p., 20'): 2/5
positive responses over number treated ([5]; methadone 1 + compound 0.3 mg/kg i.p., 30'): 3/5
positive responses over number treated ([5]; methadone 1 + compound 0.3 mg/kg i.p., 45'): 3/5
positive responses over number treated ([5]; methadone 1 + compound 0.3 mg/kg i.p., 60'): 1/5
positive responses over number treated ([5]; methadone 1 + compound 0.3 mg/kg i.p., 90'): 1/5
TOTAL positives ([5]; methadone 1 + compound 1 mg/kg i.p.): 19 X/30
positive responses over number treated ([5]; methadone 1 + compound 1 mg/kg i.p., 10'): 3/5
positive responses over number treated ([5]; methadone 1 + compound 1 mg/kg i.p., 20'): 5/5
positive responses over number treated ([5]; methadone 1 + compound 1 mg/kg i.p., 30'): 4/5
positive responses over number treated ([5]; methadone 1 + compound 1 mg/kg i.p., 45'): 3/5
positive responses over number treated ([5]; methadone 1 + compound 1 mg/kg i.p., 60'): 3/5
positive responses over number treated ([5]; methadone 1 + compound 1 mg/kg i.p., 90'): 1/5
TOTAL positives ([5]; methadone 1 + compound 3 mg/kg i.p.): 24 X/30
positive responses over number treated ([5]; methadone 1 + compound 3 mg/kg i.p., 10'): 5/5
positive responses over number treated ([5]; methadone 1 + compound 3 mg/kg i.p., 20'): 5/5
positive responses over number treated ([5]; methadone 1 + compound 3 mg/kg i.p., 30'): 3/5
positive responses over number treated ([5]; methadone 1 + compound 3 mg/kg i.p., 45'): 4/5
positive responses over number treated ([5]; methadone 1 + compound 3 mg/kg i.p., 60'): 5/5
positive responses over number treated ([5]; methadone 1 + compound 3 mg/kg i.p., 90'): 2/5
ED50 [2]: 208 mg/kg
ED50 (concentration antagonising 50% of contracting effect of CCK-8) [3]: 13.4 µg/mL
